US7491819B1 (priority 2004, dated 2009)
Like-named read-outs stand apart in the source and are kept apart here.

Legend:
[1] = tested on: NL-Rluc virus; assay: Inhibition of HIV replication (recombinant NL-Rluc virus, luciferase); format: cell-based
[2] = biological target: T1, HIV-integrase (Human immunodeficiency virus type 1 group M subtype B, UniProt P12497); assay: HIV-Integrase Inhibition Activity (SPA bead strand-transfer assay); format: biochemical
T1 construct: Recombinant integrase (0.26 ng) was incubated with the beads
How it was run: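 Strand-transfer read-out: CPM from P33-labelled target DNA (0.1 fmol) joined to bead-bound biotin substrate DNA (5 pmole), with EDTA stop at 10 mM final. Integrase (0.26 ng) prebound to streptavidin SPA beads 90 min, 37° C, and washed before adding inhibitor.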

[3] = Human immunodeficiency virus 1, read-out: Inhibition of HIV replication
[4] = Table 2a, read-out: HIV-Integrase Inhibition Activity
[5] = Human immunodeficiency virus 1, Table 2, serum condition not stated (10% FBS, 15 mg/ml human serum albumin/10% FBS or 40% human serum/5% FBS), at least 2 experiments, read-out: Activity (inhibition of HIV replication, EC50 class)

SMILES	EC50 [1, 3]	IC50 [2, 4]	EC50 [1, 5]	IC50 [2]
Cc1nc(C)n(-c2cc(F)ccc2CNC(=O)c2nc3n(c(=O)c2O)CCCOC3(C)C)n1 [Example 319, 6H-Pyrimido[2,1-c][1,4]oxazepine-2-carboxamide, N-[[2-(3,5-dimethyl-1H-1,2,4-triazol-1-yl)-4-fluorophenyl]methyl]-4,7,8,10-tetrahydro-3-hydroxy-10,10-dimethyl-4-oxo-]	3 to 100 nM	2 to 100 nM		
CCC1(C)OCCn2c1nc(C(=O)NCc1ccc(F)cc1S(C)(=O)=O)c(O)c2=O (centres unmarked) [Example 314, Pyrimido[2,1-c][1,4]oxazine-2-carboxamide, 9-ethyl-N-[[4-fluoro-2-(methylsulfonyl)phenyl]methyl]-4,6,7,9-tetrahydro-3-hydroxy-9-methyl-4-oxo-]	3 to 100 nM	2 to 100 nM		
Cc1ncnn1-c1cc(F)ccc1CNC(=O)c1nc2n(c(=O)c1O)CCCOC2(C)C [Example 316, 6H-Pyrimido[2,1-c][1,4]oxazepine-2-carboxamide, N-[[4-fluoro-2-(5-methyl-1H-1,2,4-triazol-1-yl)phenyl]methyl]-4,7,8,10-tetrahydro-3-hydroxy-10,10-dimethyl-4-oxo-]	3 to 100 nM	2 to 100 nM		
CC1(C)OCCn2c1nc(C(=O)NCc1ccc(F)cc1P(=O)(OCCO)OCCO)c(O)c2=O [Example 293, Phosphonic acid, [5-fluoro-2-[[[(4,6,7,9-tetrahydro-3-hydroxy-9,9-dimethyl-4-oxopyrimido[2,1-c][1,4]oxazin-2-yl)carbonyl]amino]methyl]phenyl]-, bis(2-hydroxyethyl) ester]	100 to 1000 nM	2 to 100 nM		
CC1(C)OCCn2c1nc(C(=O)NCc1ccc(F)cc1-n1cccn1)c(O)c2=O [Example 306, Pyrimido[2,1-c][1,4]oxazine-2-carboxamide, N-[[4-fluoro-2-(1H-pyrazol-1-yl)phenyl]methyl]-4,6,7,9-tetrahydro-3-hydroxy-9,9-dimethyl-4-oxo-]	3 to 100 nM	2 to 100 nM		
CC1(C)COP(=O)(c2cc(F)ccc2CNC(=O)c2nc3n(c(=O)c2O)CCOC3(C)C)OC1 [Example 294, Pyrimido[2,1-c][1,4]oxazine-2-carboxamide, N-[[2-(5,5-dimethyl-2-oxido-1,3,2-dioxaphosphorinan-2-yl)-4-fluorophenyl]methyl]-4,6,7,9-tetrahydro-3-hydroxy-9,9-dimethyl-4-oxo-]	3 to 100 nM	2 to 100 nM		
COP(=O)(O)c1cc(F)ccc1CNC(=O)c1nc2n(c(=O)c1O)CCOC2(C)C [Example 290, Phosphonic acid, [5-fluoro-2-[[[(4,6,7,9-tetrahydro-3-hydroxy-9,9-dimethyl-4-oxopyrimido[2,1-c][1,4]oxazin-2-yl)carbonyl]amino]methyl]phenyl]-, monomethyl ester]	100 to 1000 nM	2 to 100 nM		
CC1(C)OCCn2c1nc(C(=O)NCc1ccc(F)cc1P1(=O)OCCO1)c(O)c2=O [Example 291, Pyrimido[2,1-c][1,4]oxazine-2-carboxamide, N-[[4-fluoro-2-(2-oxido-1,3,2-dioxaphospholan-2-yl)phenyl]methyl]-4,6,7,9-tetrahydro-3-hydroxy-9,9-dimethyl-4-oxo-]	> 1000 nM	2 to 100 nM		
Cc1nncn1-c1cc(F)ccc1CNC(=O)c1nc2n(c(=O)c1O)CCOC2(C)C [Example 303, Pyrimido[2,1-c][1,4]oxazine-2-carboxamide, N-[[4-fluoro-2-(3-methyl-4H-1,2,4-triazol-4-yl)phenyl]methyl]-4,6,7,9-tetrahydro-3-hydroxy-9,9-dimethyl-4-oxo-]	> 1000 nM	100 to 1000 nM		
Cc1cnnn1-c1cc(F)ccc1CNC(=O)c1nc2n(c(=O)c1O)CCOC2(C)C [Example 296, Pyrimido[2,1-c][1,4]oxazine-2-carboxamide, N-[[4-fluoro-2-(5-methyl-1H-1,2,3-triazol-1-yl)phenyl]methyl]-4,6,7,9-tetrahydro-3-hydroxy-9,9-dim ethyl-4-oxo-]	3 to 100 nM	2 to 100 nM		
CC1(C)OCCn2c1nc(C(=O)NCc1ccc(F)cc1-n1ccnn1)c(O)c2=O [Example 295, Pyrimido[2,1-c][1,4]oxazine-2-carboxamide, N-[[4-fluoro-2-(1H-1,2,3-triazol-1-yl)phenyl]methyl]-4,6,7,9-tetrahydro-3-hydroxy-9,9-dimethyl-4-oxo-]	3 to 100 nM	2 to 100 nM		
CC1(C)OCCn2c1nc(C(=O)NCc1ccc(F)cc1P(=O)(O)O)c(O)c2=O [Example 289, Phosphonic acid, [5-fluoro-2-[[[(4,6,7,9-tetrahydro-3-hydroxy-9,9-dimethyl-4-oxopyrimido[2,1-c][1,4]oxazin-2-yl)carbonyl]amino]methyl]phenyl]-]	> 1000 nM	2 to 100 nM		
CC1(C)OCCn2c1nc(C(=O)NCc1ccc(F)cc1OC(=O)N1CCOCC1)c(O)c2=O [Example 99, 4-Morpholinecarboxylic acid, 5-fluoro-2-[[[(4,6,7,9-tetrahydro-3-hydroxy-9,9-dimethyl-4-oxopyrimido[2,1-c][1,4]oxazin-2-yl)carbonyl]amino]methyl]phenyl ester]			3 to 100 nM	2 to 100 nM
CCS(=O)(=O)Nc1cc(F)ccc1CNC(=O)c1nc2n(c(=O)c1O)CCOC2(C)C [Example 305, Pyrimido[2,1-c][1,4]oxazine-2-carboxamide, N-[[2-[(ethylsulfonyl)amino]-4-fluorophenyl]methyl]-4,6,7,9-tetrahydro-3-hydroxy-9,9-dimethyl-4-oxo-]	3 to 100 nM	2 to 100 nM		
CC1(C)OCCCn2c1nc(C(=O)NCc1ccc(F)cc1N1CCOC1=O)c(O)c2=O [Example 304, 6H-Pyrimido[2,1-c][1,4]oxazepine-2-carboxamide, N-[[4-fluoro-2-(2-oxo-3-oxazolidinyl)phenyl]methyl]-4,7,8,10-tetrahydro-3-hydroxy-10,10-dimethyl-4-oxo-]	3 to 100 nM	2 to 100 nM		
CC(=O)OCCSc1cc(F)ccc1CNC(=O)c1nc2n(c(=O)c1O)CCOC2(C)C [Example 309, Pyrimido[2,1-c][1,4]oxazine-2-carboxamide, N-[[2-[[2-(acetyloxy)ethyl]thio]-4-fluorophenyl]methyl]-4,6,7,9-tetrahydro-3-hydroxy-9,9-dimethyl-4-oxo-]	3 to 100 nM	2 to 100 nM		
Cc1nc(C)n(-c2cc(F)ccc2CNC(=O)c2nc3n(c(=O)c2O)CCOC3(C)C)n1 [Example 307, Pyrimido[2,1-c][1,4]oxazine-2-carboxamide, N-[[2-(3,5-dimethyl-1H-1,2,4-triazol-1-yl)-4-fluorophenyl]methyl]-4,6,7,9-tetrahydro-3-hydroxy-9,9-dimethyl-4-oxo-]	3 to 100 nM	2 to 100 nM		
COP(=O)(OC)c1cc(F)ccc1CNC(=O)c1nc2n(c(=O)c1O)CCCOC2(C)C [Example 318, Phosphonic acid, [5-fluoro-2-[[[(4,7,8,10-tetrahydro-3-hydroxy-10,10-dimethyl-4-oxo-6H-pyrimido[2,1-c][1,4]oxazepin-2-yl)carbonyl]amino]methyl]phenyl]-, dimethyl ester]	3 to 100 nM	2 to 100 nM		
CC(C)(C)c1cn(-c2cc(F)ccc2CNC(=O)c2nc3n(c(=O)c2O)CCCOC3(C)C)nn1 [Example 301, 6H-Pyrimido[2,1-c][1,4]oxazepine-2-carboxamide, N-[[2-[4-(1,1-dimethylethyl)-1H-1,2,3-triazol-1-yl]-4-fluorophenyl]methyl]-4,7,8,10-tetrahydro-3-hydroxy-10,10-dimethyl-4-oxo-]	3 to 100 nM	2 to 100 nM		
CC1(C)OCCn2c1nc(C(=O)NCc1ccc(F)cc1-n1cc(CO)nn1)c(O)c2=O [Example 299, Pyrimido[2,1-c][1,4]oxazine-2-carboxamide, N-[[4-fluoro-2-[4-(hydroxymethyl)-1H-1,2,3-triazol-1-yl]phenyl]methyl]-4,6,7,9-tetrahydro-3-hydroxy-9,9-dimethyl-4-oxo-]	3 to 100 nM	2 to 100 nM		
CCC1(C)OCCn2c1nc(C(=O)NCc1ccc(F)cc1S(=O)(=O)N(C)C)c(O)c2=O (centres unmarked) [Example 315, Pyrimido[2,1-c][1,4]oxazine-2-carboxamide, N-[[2-[(dimethylamino)sulfonyl]-4-fluorophenyl]methyl]-9-ethyl-4,6,7,9-tetrahydro-3-hydroxy-9-methyl-4-oxo-]	3 to 100 nM	2 to 100 nM		
CCSc1cc(F)ccc1CNC(=O)c1nc2n(c(=O)c1O)CCOC2(C)C [Example 311, Pyrimido[2,1-c][1,4]oxazine-2-carboxamide, N-[[2-(ethylthio)-4-fluorophenyl]methyl]-4,6,7,9-tetrahydro-3-hydroxy-9,9-dimethyl-4-oxo-]	3 to 100 nM	2 to 100 nM		
CC(=O)OCCS(=O)(=O)c1cc(F)ccc1CNC(=O)c1nc2n(c(=O)c1O)CCOC2(C)C [Example 310, Pyrimido[2,1-c][1,4]oxazine-2-carboxamide, N-[[2-[[2-(acetyloxy)ethyl]sulfonyl]-4-fluorophenyl]methyl]-4,6,7,9-tetrahydro-3-hydroxy-9,9-dimethyl-4-oxo-]	3 to 100 nM	2 to 100 nM		
Cc1nnn(-c2cc(F)ccc2CNC(=O)c2nc3n(c(=O)c2O)CCOCC3(C)C)c1C [Example 302, 4H-Pyrimido[1,2-d][1,4]oxazepine-2-carboxamide, N-[[2-(4,5-dimethyl-1H-1,2,3-triazol-1-yl)-4-fluorophenyl]methyl]-6,7,9,10-tetrahydro-3-hydroxy-10,10-dimethyl-4-oxo-]	3 to 100 nM	2 to 100 nM		
CN(C)C(=O)Oc1cc(F)ccc1CNC(=O)c1nc2n(c(=O)c1O)CCOC2(C)C [Example 96, Carbamic acid, dimethyl-, 5-fluoro-2-[[[(4,6,7,9-tetrahydro-3-hydroxy-9,9-dimethyl-4-oxopyrimido[2,1-c][1,4]oxazin-2-yl)carbonyl]amino]methyl]phenyl ester]			3 to 100 nM	2 to 100 nM
